Assays:
Format in all cases: cell-based, mouse
hematopoietic stem cells [1] = assay: Proliferation of hematopoietic stem cells on coated plates
Method: (§1) Bone marrow cells were flushed out from the femurs and tibias of three mice of 6 to 7 weeks of age (C57BL/6J) and dissociated with a 22G needle. The cells were reacted with a biotin-labeled anti-lineage antibody for 30 minutes and subsequently with an anti-blotin antibody-conjugated magnetic beads, and lineage-positive cells were removed by automated magnetic cell sorter autoMACS (Miltenyi Biotec). After staining with PE-CD3, PE-Mac1, PE-Gr1, PE-Ter119, PE-B220, FTTC-Sca1 and APC-c-Kit, a lineage(−) Sca1(+) c-Kit (high) cell fraction was sorted out using FACSAria and used for the experiments described below.
(§2) The above-prepared cells were plated on a 48-well plate coated with a recombinant polydom protein or fibronectin. The same type of plate without coating was used as a control. The medium used was RPMI containing 10% fetal calf serum, thrombopoietin (30 ng/ml) and flt3 ligand (100 ng/ml). For the examination of cell proliferation, the cells were plated in duplicate wells for each coating at 1000 cells/well and started to be cultured, and the cell number was counted at the start of culture, and on day 2 and day 3. The remaining cells were divided into three aliquots, plated in wells for each coating, and subjected to FACS analysis on day 3 after the start of culture. For the FACS analysis, staining with an antibody cocktail containing PE-CD3, PE-Mac1, PE-Gr1, PE-Ter119, PE-B220, FITC-Sca1 and APC-c-Kit was performed and FACSCont was used.
The above-prepared cells were divided into three groups and plated on 48-well plates at 5000 cells/well. The medium used was RPMI containing 10% fetal calf serum, thrombopoietin (30 ng/ml) and flt3 ligand (100 ng/ml). For an EDDMMEVPY peptide treatment group, 2 μl of the peptide was added to each well at the final concentration of 50 μM, and for the other two groups, 2 μl of PBS was added to each well. Then, the culture was performed at […] for 2 hours. Subsequently, the cells were transferred to 48-well plates coated with a recombinant polydom protein or fibronectin. The cells cultured in the presence of the peptide were transferred to the recombinant polydom protein-coated plate, and the cells in one of the other two groups were transferred to the recombinant polydom protein-coated plate, and the cells in the remaining group were transferred to the fibronectin-coated plate. The culture was continued for 3 days and the cell numbers were counted on day 2, day 3 and […].

hematopoietic stem cells [2] = assay: FACS analysis of differentiation of hematopoietic stem cells on coated wells; settings: day 3 of culture on coated well, FIG. 19
Method: as §1, §2

cardiac stem cells [3] = assay: Cell adhesion assay using GFP label-retaining cells (cardiac stem cells); settings: 100 nM coating, FIG. 25
Source text: (§3) Tissue stem cells are known to generally have a very prolonged, cell cycle and thus allow labeling compounds incorporated into DNA and the cell interior to remain stable for a long period of time without decay along with cell division, This nature can be advantageously used to identify and separate tissue stem cells by short-term labeling or cells with a nucleotide analog such as bromodeoxyuridine (BrdU) or a fusion protein of green fluorescent protein (hereinafter referred to as “GFP”) and a nucleoprotein, histone, followed by selection of cells retaining the label for a long period of time (label-retaining cells). In this experiment, with the use of a tetracycline-inducible expression system in combination with the ROSA26 promoter, a fusion protein of GFP and histone H2B (H2B-GFP) was expressed in the heart of a mouse for 2 weeks starting 1 week before birth, and 6 weeks later, cardiac stem cells were separated as GFP label-retaining cells from the heart.
To explore whether polydom serves as a scaffold for integrin α9β1-expressing cardiac stem cells, cardiac stem cells were separated as GFP label-retaining cells and subjected to a cell adhesion assay. A 96-well immuno plate (Nunc Maxisorp) was coated with 50 μl/well of 100 nM polydom or fibronectin at 4° C. overnight, GFP label-retaining cells were collected by FACSAria and suspended at 1×10^6 cells/ml in serum-free Iscove's Modified Dulbecco Medium (hereinafter referred to as “IMDM”). The cell suspension was plated at 100 μl/well and cultured in a 5% CO2 incubator at 37° C. for 12 hours. After three washes with PBS, the cells were fixed with 100 μl/well of 3.7% formalin for 15 minutes. Then, the cells were incubated with 0.5% toluidine blue (150 μl/well) for 10 minutes and washed with MilliQ water. After drying, the number of attached cells was counted under a microscope.

cardiac stem cells [4] = assay: Colony forming ability of GFP label-retaining cells (cardiac stem cells); settings: 100 nM coating, 1×10^4 cells/well, 2 weeks, FIG. 26
Source text: as §3
To explore whether cardiac stem cells proliferate on a polydom-coated plate, colony formation was measured, as an indicator of proliferation. A Falcon 6-well plate was coated with 800 μl/well of 100 nM polydom or fibronectin at 4° C. overnight. GFP label-retaining cells were collected by FACSAria and suspended in IMDM containing 10% fetal calf serum. […] After drying, the number of colonies was counted under a microscope.

polydom: recombinant mouse SVEP1 (SEQ ID NO: 2), ECM protein, ligand for integrin α9β1
proliferation of hematopoietic stem cells on coated wells (hematopoietic stem cells [1]; 1000 cells/well, counted to day 3, versus uncoated control, FIG. 18): remarkably inhibited from proliferating | proliferation of hematopoietic stem cells on coated plate after PBS pretreatment (hematopoietic stem cells [1]; 5000 cells/well, counted day 2 to day 4, FIG. 20): remarkably inhibited from proliferating | expression of Sca1 on hematopoietic stem cells (hematopoietic stem cells [2]): maintained the expression of Sca1 | expression of c-Kit on hematopoietic stem cells (hematopoietic stem cells [2]): reduced expression of c-Kit | adhesion of cardiac stem cells to coated plate (cardiac stem cells [3]; 12 hours, serum-free IMDM): a large number of the cells adhered | cell adhesion activity for cardiac stem cells compared with fibronectin (cardiac stem cells [3]): equivalent or superior to fibronectin | colony forming activity (colony count relative to the number of cells plated) (cardiac stem cells [4]): about 0.8%

— patent publication US20150086557A1, “NOVEL INTEGRIN alpha9 beta1 LIGAND AND USES THEREOF” (OSAKA UNIVERSITY, priority 2012, published 2015)
